Reference: patent US9073899B2, “Solid forms of dabigatran etexilate mesylate and processes for their preparation” (ESTEVE QUÍMICA, S.A., priority 2012, dated 2015)
“Also recorded” adds a separate entry of the source. Where a name gives a salt, the structure may show the parent alone.

Key:
Assay type in all cases: physicochemical
[1] = Stability assay: slurrying in acetonitrile, solid form by powder XRD; settings: acetonitrile 1 mL, 50 mg, 24° C. (room temperature), stirred 48 hours
Procedure: (§1) Powder diffraction patterns were acquired using a PANalytical, X'Pert diffractometer using CuKalpha-radiation. The system was configured in theta-theta, transmission geometry equipped with a focusing X-ray mirror and PIXcel detector.
(§2) Dabigatran etexilate mesylate, Form I, 50 mg, was added to acetonitrile (1 mL) with stirring, at 24° C. The product was not soluble under these conditions. The mixture was stirred for 48 hours, filtered and analysed to be Form A of dabigatran etexilate mesylate as determined by powder XRD.
(§3) The solubility of the amorphous form is therefore >50 mg/mL. After approximately 5 minutes a solid crystallized. The mixture was stirred for 48 hours, filtered and analysed to be Form A of dabigatran etexilate mesylate as determined by powder XRD.
(§4) Dabigatran etexilate mesylate, Form A, 50 mg, was added to acetonitrile (1 mL) with stirring, at 24° C. The product was not soluble under these conditions. The mixture was stirred for 48 hours, filtered and analysed to be Form A of dabigatran etexilate mesylate as determined by powder XRD.

[2] = Solubility in acetonitrile (50 mg added to 1 mL with stirring); settings: for solubility observation (in words): 24° C. / room temperature (20-25° C.)
Procedure: as §2, §3, §4

[3] = Solvent mediated transformation of mixtures of forms in 2-propanol, solid form by powder XRD; settings: 2-propanol 0.6 mL, ambient temperature, orbital agitator
Procedure: as §1
Dabigatran etexilate mesylate, a mixture of Form I, 17 mg and Form A, 15 mg, was suspended in 2-propanol (0.6 mL) and the mixture agitated at ambient temperature using an orbital agitator for 64 hours. The mixture was filtered, dried under vacuum and analysed to be purely Form A of dabigatran etexilate mesylate as determined by powder XRD.
Dabigatran etexilate mesylate, a mixture of Form II, 10 mg and Form A, 15 mg, was suspended in 2-propanol (0.6 mL) and the mixture agitated at ambient temperature using an orbital agitator for 7 days. The mixture was filtered, dried under vacuum and analysed to be purely Form A of dabigatran etexilate mesylate as determined by powder XRD.

| Structure (SMILES) | solid form after slurrying (powder XRD) [1] | solubility observation (in words) ([2]; 50 mg in 1 mL acetonitrile) | also measured |
| --- | --- | --- | --- |
| CCCCCCOC(=O)NC(=N)c1ccc(NCc2nc3cc(C(=O)N(CCC(=O)OCC)c4ccccn4)ccc3n2C)cc1 [dabigatran etexilate mesylate Form A, dabigatran etexilate mesylate] | Form A; also recorded: stable | not soluble; also recorded: at least partly insoluble | – |
| CCCCCCOC(=O)/N=C(\N)c1ccc(NCc2nc3cc(C(=O)N(CCC(=O)OCC)c4ccccn4)ccc3n2C)cc1 [mixture of Form II and Form A, dabigatran etexilate mesylate] | – | – | solid form after slurrying mixture of forms (powder XRD) ([3]; 7 days): purely Form A; also recorded: converted entirely into Form A |
| CCCCCCOC(=O)NC(=N)c1ccc(NCc2nc3cc(C(=O)N(CCC(=O)OCC)c4ccccn4)ccc3n2C)cc1 [dabigatran etexilate mesylate Form I, dabigatran etexilate mesylate] | converted entirely into Form A | not soluble; also recorded: at least partly insoluble | – |
| CCCCCCOC(=O)/N=C(\N)c1ccc(NCc2nc3cc(C(=O)N(CCC(=O)OCC)c4ccccn4)ccc3n2C)cc1 [mixture of Form I and Form A, dabigatran etexilate mesylate] | – | – | solid form after slurrying mixture of forms (powder XRD) ([3]; 64 hours): purely Form A; also recorded: converted entirely into Form A |
| CCCCCCOC(=O)NC(=N)c1ccc(NCc2nc3cc(C(=O)N(CCC(=O)OCC)c4ccccn4)ccc3n2C)cc1 [amorphous dabigatran etexilate mesylate, dabigatran etexilate mesylate] | Form A | complete dissolution almost immediately; also recorded: completely dissolved | time until a solid crystallized from the acetonitrile solution ([2]; 50 mg in 1 mL acetonitrile, 24° C., after complete dissolution): approximately 5 minutes; solubility ([2]; organic solvent or mixture, thermodynamic from solid, acetonitrile, 24° C., 50 mg in 1 mL): > 50 mg/mL |
